The source of these data is patent publication US12655174B2, “Adenosine A3 receptor agonists, preparation methods and uses thereof” (ZHEJIANG VIMGREEN PHARMACEUTICALS, LTD., priority 2020, dated 2026).

Data set [1] deals with T1, ADORA3 receptor (Homo sapiens, UniProt P0DMS8).
T1 sequence (P0DMS8 1-318): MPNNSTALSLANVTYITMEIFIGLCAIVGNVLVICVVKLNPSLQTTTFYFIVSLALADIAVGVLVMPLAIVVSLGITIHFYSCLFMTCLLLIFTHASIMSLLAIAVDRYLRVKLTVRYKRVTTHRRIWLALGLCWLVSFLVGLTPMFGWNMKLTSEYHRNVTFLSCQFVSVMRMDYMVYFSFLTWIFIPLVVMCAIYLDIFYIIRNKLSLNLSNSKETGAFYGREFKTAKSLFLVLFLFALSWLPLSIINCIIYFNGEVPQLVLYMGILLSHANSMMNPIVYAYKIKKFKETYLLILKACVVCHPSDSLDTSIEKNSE
Briefly: Agonistic effect on adenosine A3 receptor by FLIPR assay (calcium flux assay). The conditions noted are these: agonist mode. The format is cell-based. The procedure:
Example 27: Agonistic Effect of Compound on Adenosine A3 Receptor by FLIPR Assay (Calcium Flux Assay)
First Day: Cell Inoculation
• 1) With regard to ADORA3 receptor, cultured cells were used for inoculation: the culture medium was aspirated and the cells were washed twice with 10 mL of DPBS. 2 mL of 0.05% EDTA-trypsin was added and the cells were incubated at 37° C. for 1 minute. Then 10 mL of the culture medium was added to stop the digestion and the cell suspension was transferred to a 50-mL tapered tube. • 2) The 50-mL tapered tube containing the various cells was centrifuged at 300 g for 5 minutes. • 3) A supernatant was aspirated and no cells should be aspirated. • 4) The cell precipitate was resuspended in 6-8 mL of the culture medium, and then 0.5 mL of the cells were taken out for cell counting by using a Vi-cell XR cell viability analyzer. • 5) The cell suspension was diluted to 1×10^6 cells/mL (20 μL of 20,000 cells per well) in the culture medium and the cells were inoculated into a cell plate (384-well Poly-D-lysine protein-coated plate, Greiner-781946). • 6) The plate was placed in a 37° C./5% CO2 incubator for 16-20 hours. Second Day: • 1) Preparation of 2×Fluo-4 Direct™ uptaking dye • a. Preparation of probenecid solution • 1 mL of FLIPR assay buffer was added to 77 mg of probenecid (provided by Fluo-4 Direct™ calcium assay kit) to be prepared into 250 mM of a probenecid solution. The fresh probenecid solution was used daily. • b. 2×(8 μM) Fluo-4 Direct™ loading dye (per 10 mL)
A vial of the Fluo-4 Direct™ crystal was thawed and then 10 mL of the FLTPR analytical buffer was added to the vial. Then 0.2 mL of 250 mM of a probe solution was added to every 10 mL Fluo-4 Direct™ crystal to a final assay concentration of 2.5 mM. The solution was vortexed and stood for >5 min at a dark place. 2×Fluo-4 Direct™ uptaking dye was freshly prepared daily. • 2) Compound preparation • a. Preparation of compound plate: all reference and test compounds were serially diluted 4-fold in 10 points by using an Echo liquid processor and then 900 nL of the diluted compounds were transferred to a compound plate. • b. 30 μL FLIPR analytical buffer was added to the compound plate and the plate was centrifuged at 300 g for 1 minute. • 3) FLIPR analysis • a. With regard to ADORA3 receptor: firstly, the cell plate was taken out from a culture box. The culture medium was then aspirated and 20 μL of the FLIPR analytical buffer was added. The cell plate was placed in an incubator for 45 minutes and at a room temperature for 15 minutes. • b. To run an experimental solution on […], 10 μL of the FLIPR analytical buffer was transferred from the compound plate to a cell plate, and then the fluorescent signal was read. Then 10 μL of a compound solution was transferred from the compound plate to the cell plate and the fluorescence signal was read. “Max−min” was calculated from Reader 91 to an allowed maximum value. • c. With regard to agonist: activation %=(RLU−LC)/(HC−LC)*100, • wherein RLU=relative light unit, allowed maximum signal was 91; HC=average signal of high concentration agonist; and LC=mean signal of DMSO well. • d. Data were fitted to a model “log (agonist) versus response-variable slope” by using GraphPad Prism 5 to determine an EC50 value. • e. […] 2. Test Result
(Calcium assays in cells follow changes in intracellular calcium, usually with a dye or a luminescent sensor.)

Data set [2] can be described thus: Pharmacokinetic test of compound in SD rat. It counts as in vivo. The conditions noted are these: SD rats, intragastric administration (IG), cassette dosing. The procedure:
Example 28: Pharmacokinetic Test of Compound in SD Rat
The animal species used in this experiment were SD rats. There were 3 animals per group. The rats were dosed in cassette format, i.e., multiple (1-6) different compounds were dosed simultaneously to the same group of the SD rats. The vehicle used for the drug was 5% DMSO+5% Solutl+90% ([…] methylcellulose M450), and the administration route was intragastric administration (IG).

For data set [3], the target named is T2, ADORA3 receptor (CHO cells stably expressing ADORA3 receptor) (Homo sapiens, UniProt P0DMS8).
T2 construct: expressed in transfected cells
T2 sequence (P0DMS8 1-318): T1 sequence (P0DMS8 1-318)
Briefly: Effect of compound on intracellular cAMP level by adenosine A3 receptor agonism. It counts as cell-based. The conditions noted are these: forskolin-stimulated. The procedure:
Example 26: Test the Effect of Compound on Intracellular cAMP Level by Adenosine A3 Receptor Agonism
• 1) 1×HBSS with Ca2+ and Mg2+ (14 mL), 1 M HEPES (75 μL), a 7.5% (w/v) BSA stabilizer (pH 7.4, 200 μL), and 20 mM rolipram (7.5 μL) were respectively prepared as cAMP assay buffer. • 2) Preparation of compound source plate • a. […] A 10 mM stock solution was subjected to a 3-fold serial dilution by 100% (v/v) DMSO to prepare 10 doses of the test substance. • c. 1 mM of Forskolin was prepared by 100% (v/v) DMSO. • 3) Preparation of test plate • a. Prior to the assay, CHO cells stably expressing ADORA3 receptor were harvested and the cells were counted by using a Countess cell counter. […] The cells were seeded at a density of 2,000 cells/well in a 384-well plate. • 4) 10 nL/well of the serially diluted compound and 10 nL/well of 1 mM of forskolin were transferred to each well with ADORA3 receptor expressing cells by using Echo550. • 5) A cell plate was centrifuged at 1,000 rpm for 1 minute and then stirred at 600 rpm for 2 minutes. The plate was incubated at 37° C. • 6) An Eu-cAMP tracer working solution and an Ulight-anti-cAMP working solution were prepared according to the following table.
• 7) 5 μl/well of the Eu-cAMP tracer working solution and 5 μl/well of the Ulight-anti-cAMP working solution were added to each well of the plate. […] 2. Data Analysis • 1) An activation percentage was calculated by using the following formula:
[formula] • % Activation: activation percentage • Ratiocpd: ratio of emissivity of test compound • RatioLow control: ratio of low emissivity • RatioHigh control: ratio of high emissivity • 2) EC50 was calculated by an XLfit using the Hill equation to fit the activity percentage and a log of a compound concentration. 3. Test Result

Broadly, the EC50 is the concentration giving half of the maximal effect. On to `CNC(=O)[C@H]1OC(n2cnc3c(NCc4cc(C)cc(C)c4)nc(-c4cccnc4)nc32)[C@H](O)[C@@H]1O` (stereo in doubt) [compound 297, (2S,3S,4R,5S)-5-(6-((3,5-dimethylbenzyl)amino)-2-(pyridin-3-yl)-9H-purin-9-yl)-3,4-dihydroxyl-N-methyltetrahydrofuran-2-carboxamide], for which the 50% effective concentration (EC50) in data set [1] stood at 12.9 nM. In addition, in data set [2], the “AUC_D” value was found to be 2349.41 kg·ng·h/mL/mg.
The corresponding values for `CNC(=O)[C@H]1OC(n2cnc3c(NCc4cc(C)cc(C)c4)nc(-c4cncc(OC)c4)nc32)[C@H](O)[C@@H]1O` (stereo in doubt) [compound 298, (2S,3S,4R,5S)-5-(6-((3,5-dimethylbenzyl)amino)-2-(5-methoxypyridin-3-yl)-9H-purin-9-yl)-3,4-dihydroxyl-N-methyltetrahydrofuran-2-carboxamide] are 37 nM and 4423.94 kg·ng·h/mL/mg.
Consider `CCNC(=O)[C@H]1O[C@@H](n2cnc3c(NC)nc(-c4cccnc4)nc32)[C@H](O)[C@@H]1O` [compound 42, (2S,3S,4R,5R)-N-ethyl-3,4-dihydroxyl-5-(6-(methylamino)-2-(pyridin-3-yl)-9H-purin-9-yl)-tetrahydrofuran-2-formamide], for which the half-maximal effective concentration (EC50) in data set [1] amounted to 12.7 nM.
Take `CCNC(=O)[C@H]1O[C@@H](n2cnc3c(NC)nc(-c4cncc(F)c4)nc32)[C@H](O)[C@@H]1O` [compound 43, (2S,3S,4R,5R)-N-ethyl-5-(2-(5-fluoropyridin-3-yl)-6-(methylamino)-9H-purin-9-yl)-3,4-dihydroxyl-tetrahydrofuran-2-formamide]: the EC50 in data set [1] is 11.4 nM. In addition, the “AUC_D” value in data set [2] worked out at 87.99 kg·ng·h/mL/mg.
For `CCNC(=O)[C@H]1O[C@@H](n2cnc3c(NC)nc(-c4cncc(C)c4)nc32)[C@H](O)[C@@H]1O` [compound 72, (2S,3S,4R,5R)-N-ethyl-3,4-dihydroxyl-5-(6-(methylamino)-2-(5-methylpyridin-3-yl)-9H-purin-9-yl)tetrahydrofuran-2-carboxamide] the same measures were 20.6 nM and 75.08 kg·ng·h/mL/mg.
On to `CCNC(=O)[C@H]1O[C@@H](n2cnc3c(NC)nc(-c4cncc(OC)c4)nc32)[C@H](O)[C@@H]1O` [compound 73, (2S,3S,4R,5R)-N-ethyl-3,4-dihydroxyl-5-(2-(5-methoxypyridin-3-yl)-6-(methylamino)-9H-purin-9-yl)tetrahydrofuran-2-carboxamide], for which the EC50 in data set [1] was 29.6 nM.
On the same count and under the same terms, next, `CCNC(=O)[C@H]1O[C@@H](n2cnc3c(NC)nc(-c4cncc(Cl)c4)nc32)[C@H](O)[C@@H]1O` [compound 90, (2S,3S,4R,5R)-5-(2-(5-chloropyridin-3-yl)-6-(methylamino)-9H-purin-9-yl)-N-ethyl-3,4-dihydroxyltetrahydrofuran-2-carboxamide]: 25.2 nM.
Consider `CNC(=O)[C@H]1O[C@@H](n2cnc3c(NCc4cc(C)ccn4)nc(-c4cncc(C)c4)nc32)[C@H](O)[C@@H]1O` [compound 190, (2S,3S,4R,5R)-3,4-dihydroxyl-N-methyl-5-(6-((4-methylpyridin-2-yl)methylamino)-2-(5-methylpyridin-3-yl)-9H-purin-9-yl)-tetrahydrofuran-2-formamide], for which the EC50 in data set [1] was found to be 9.06 nM. Also, the “AUC_D” value in data set [2] came out at 2205.59 kg·ng·h/mL/mg.
`CNC(=O)[C@H]1O[C@@H](n2cnc3c(NCc4cccc(C)c4)nc(-c4cncc(C)c4)nc32)[C@H](O)[C@@H]1O` [compound 284, (2S,3S,4R,5R)-5-(6-(3-methylbenzylamino)-2-(5-methylpyridin-3-yl)-9H-purin-9-yl)-3,4-dihydroxyl-N-methyl-tetrahydrofuran-2-formamide] had an EC50 in data set [3] of 2.85 nM. Moreover, in data set [2], the “AUC_D” value amounted to 8902.66 kg·ng·h/mL/mg.
`CNC(=O)[C@H]1O[C@@H](n2cnc3c(NCc4cccc(C(F)(F)F)n4)nc(-c4cncc(F)c4)nc32)[C@H](O)[C@@H]1O` [compound 289, (2S,3S,4R,5R)-5-(2-(5-fluoropyridin-3-yl)-6-(((6-(trifluoromethyl)pyridin-2-yl)methyl)amino)-9H-purin-9-yl)-3,4-dihydroxyl-N-methyltetrahydrofuran-2-carboxamide] came in with a concentration for a half-maximal effect (EC50) in data set [3] of 6.81 nM. For the same molecule, in data set [2], the “AUC_D” value was found to be 106.30 kg·ng·h/mL/mg.
The corresponding values for `CNC(=O)[C@H]1O[C@@H](n2cnc3c(NCc4cccc(C(F)(F)F)n4)nc(-c4cncc(Cl)c4)nc32)[C@H](O)[C@@H]1O` [compound 290, (2S,3S,4R,5R)-5-(2-(5-chloropyridin-3-yl)-6-(((6-(trifluoromethyl)pyridin-2-yl)methyl)amino)-9H-purin-9-yl)-3,4-dihydroxyl-N-methyltetrahydrofuran-2-carboxamide] are 12.4 nM and 216.77 kg·ng·h/mL/mg.
The corresponding values for `CNC(=O)[C@H]1O[C@@H](n2cnc3c(NCc4cc(C(F)(F)F)ccn4)nc(-c4cncc(Cl)c4)nc32)[C@H](O)[C@@H]1O` [compound 294, (2S,3S,4R,5R)-5-(2-(5-chloropyridin-3-yl)-6-(((4-(trifluoromethyl)pyridin-2-yl)methyl)amino)-9H-purin-9-yl)-3,4-dihydroxyl-N-methyltetrahydrofuran-2-carboxamide] are 2.62 nM and 639.00 kg·ng·h/mL/mg.
The corresponding values for `CNC(=O)[C@H]1O[C@H](n2cnc3c(NCc4cccc(C)c4)nc(-c4cncc(OC)c4)nc32)[C@H](O)[C@@H]1O` [compound 300] are 2.13 nM and 729.20 kg·ng·h/mL/mg.
